Paper PMC5392419 (Pharmacological research, 2017)

Assays:
[1] = biological target: T1, ATP-binding cassette subfamily G member 2 (ABCG2) (Homo sapiens, UniProt Q9UNQ0); assay: [3H]-mitoxantrone accumulation and efflux assay in ABCG2-overexpressing cells; type: cell-based
T1 sequence (Q9UNQ0 1-655): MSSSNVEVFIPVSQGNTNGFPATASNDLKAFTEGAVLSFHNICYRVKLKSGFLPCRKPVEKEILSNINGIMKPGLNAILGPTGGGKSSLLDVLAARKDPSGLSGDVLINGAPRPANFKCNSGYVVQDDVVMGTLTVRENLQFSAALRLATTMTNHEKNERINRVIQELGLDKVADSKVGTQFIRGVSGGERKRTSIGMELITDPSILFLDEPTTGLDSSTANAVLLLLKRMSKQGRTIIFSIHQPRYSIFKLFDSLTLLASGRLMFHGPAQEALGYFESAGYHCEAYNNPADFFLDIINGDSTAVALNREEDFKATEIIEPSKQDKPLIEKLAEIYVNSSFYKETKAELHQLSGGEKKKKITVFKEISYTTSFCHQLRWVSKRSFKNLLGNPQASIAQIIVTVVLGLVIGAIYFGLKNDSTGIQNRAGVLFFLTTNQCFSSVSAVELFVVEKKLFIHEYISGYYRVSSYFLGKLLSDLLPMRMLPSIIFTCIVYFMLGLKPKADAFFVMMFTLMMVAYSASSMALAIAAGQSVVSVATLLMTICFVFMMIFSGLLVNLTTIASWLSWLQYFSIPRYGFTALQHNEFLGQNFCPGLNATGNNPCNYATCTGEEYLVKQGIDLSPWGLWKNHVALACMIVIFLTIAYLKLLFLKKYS

[2] = biological target: T1, ATP-binding cassette subfamily G member 2 (ABCG2); assay: biochemical

Row | EC50 [2] | Compound | [3H]-mitoxantrone accumulation and efflux assay in ABCG2-overexpressing cells (1) [1]
1 |  | COc1ccc2c3c([nH]c2c1)[C@H](C=C(C)C)N1C(=O)[C@@H]2CCCN2C(=O)[C@@H]1C3 [Fumitremorgin C] | efficacy of cabozantinib on increasing intracellular accumulation of [^3H]-MX in resistant cell line is comparable to that of FTC
2 | 734 nM | COc1cc2nccc(Oc3ccc(NC(=O)C4(C(=O)Nc5ccc(F)cc5)CC4)cc3)c2cc1OC [cabozantinib] | 
